Results taken from patent US12453759B2, “Di-thioester cationic lipids” (TRANSLATE BIO, INC., priority 2019, dated 2025).

System: hEPO protein expression
Test: In vivo expression of hEPO after IM injection of hEPO mRNA lipid nanoparticles (serum ELISA)
Settings: LNP with hEPO mRNA, cationic lipid, DMG-PEG2000, cholesterol, DOPE, single IM injection into gastrocnemius, 0.1 ug, male BALB/c mice, FIG. 1
Procedure: Lipid nanoparticle formulations comprising human erythropoietin (hEPO) mRNA, a cationic Lipid, DMG-PEG2000, cholesterol and DOPE were administered intramuscularly to study mRNA delivery and resultant hEPO expression. Male BALB/c mice at 6-8 weeks old are given a single injection of the LNP formulations into the gastrocnemius muscle at a dosage level of 0.1 ug. Blood samples were collected at 6 and 24 hours post-dose. hEPO protein expression levels were measured in the sera samples by ELISA and presented in FIG. 1.

Row | Compound | in vivo protein production (hEPO protein expression levels in sera) (6 hours after administration) | in vivo protein production (hEPO protein expression levels in sera) (24 hours after administration)
1 | CCCCCCCCC(O)CN(CCSC(=O)[C@H]1CC[C@H](C(=O)SCCN(CC(O)CCCCCCCC)CC(O)CCCCCCCC)CC1)CC(O)CCCCCCCC (stereo partly drawn) [Compound 79] | high levels of in vivo protein production | –
2 | CCCCCCCCCCC(O)CN(CCSC(=O)c1ccc(C(=O)SCCN(CC(O)CCCCCCCCCC)CC(O)CCCCCCCCCC)cc1)CC(O)CCCCCCCCCC (stereo not drawn) [Compound 98] | high levels of in vivo protein production | high levels of in vivo protein production
